Our source for the melting point values is US6562830B1, “Method of treating a patient having precancerous lesions with phenyl quinazolinone derivatives” (Cell Pathways, Inc., priority 1999, dated 2003).

For orientation: melting point means the temperature, or range, at which the solid turns liquid. As for `CCCOc1ccccc1-c1nc2cc(N)ccc2c(=O)[nH]1` [Example 26, 7-Amino-2-(2-Propoxyphenyl)-4(3H)-quinazolinone], the melting point stood at 185 °C.
`CCCOc1ccccc1-c1nc2cc(NC)ccc2c(=O)[nH]1` [Example 27, 7-Methylamino-2-(2-Propoxyphenyl)-4(3H)-quinazolinone] displayed a melting point of 204 to 205 °C.
